± gives the expanded uncertainty stated by the source.
Test: xn = mol fraction of the nth substance listed
Conditions: 101 kPa, Liquid; for speed of sound: Pulse-echo method

CCCCCCCCCO [nonan-1-ol] + Cc1ccc(C)cc1
Conditions | mass density, 293.15 K [kg/m3] | mass density, 303.15 K [kg/m3] | mass density, 313.15 K [kg/m3] | speed of sound, 293.15 K [m/s] | speed of sound, 303.15 K [m/s] | speed of sound, 313.15 K [m/s]
x2 = 0 | 827.7 ± 0.43 | 820.82 ± 0.44 | 813.88 ± 0.45 | 1381 ± 2 | 1347 ± 2 | 1314 ± 2
x2 = 0.0611 | 829.31 ± 0.43 | 822.32 ± 0.44 | 815.27 ± 0.45 | 1378 ± 2 | 1343 ± 2 | 1310 ± 2
x2 = 0.1108 | 830.62 ± 0.43 | 823.55 ± 0.44 | 816.41 ± 0.45 | 1375 ± 2 | 1340 ± 2 | 1306 ± 2
x2 = 0.1652 | 832.08 ± 0.43 | 824.91 ± 0.44 | 817.67 ± 0.46 | 1372 ± 2 | 1336 ± 2 | 1301 ± 2
x2 = 0.226 | 833.72 ± 0.44 | 826.44 ± 0.45 | 819.1 ± 0.46 | 1368 ± 2 | 1331 ± 2 | 1296 ± 2
x2 = 0.2932 | 835.56 ± 0.44 | 828.16 ± 0.45 | 820.7 ± 0.46 | 1363 ± 2 | 1326 ± 2 | 1290 ± 2
x2 = 0.3651 | 837.59 ± 0.44 | 830.07 ± 0.45 | 822.47 ± 0.46 | 1357 ± 2 | 1320 ± 2 | 1284 ± 2
x2 = 0.4248 | 839.34 ± 0.45 | 831.7 ± 0.46 | 824 ± 0.47 | 1353 ± 2 | 1315 ± 2 | 1278 ± 2
x2 = 0.5023 | 841.69 ± 0.45 | 833.91 ± 0.46 | 826.07 ± 0.47 | 1347 ± 2 | 1308 ± 2 | 1272 ± 2
x2 = 0.558 | 843.46 ± 0.46 | 835.58 ± 0.47 | 827.63 ± 0.48 | 1343 ± 2 | 1304 ± 2 | 1267 ± 2
x2 = 0.6359 | 846.06 ± 0.46 | 838.04 ± 0.47 | 829.95 ± 0.48 | 1338 ± 2 | 1299 ± 2 | 1261 ± 2
x2 = 0.7123 | 848.77 ± 0.47 | 840.61 ± 0.48 | 832.39 ± 0.49 | 1334 ± 2 | 1294 ± 2 | 1256 ± 2
x2 = 0.7744 | 851.12 ± 0.47 | 842.84 ± 0.48 | 834.5 ± 0.49 | 1332 ± 2 | 1291 ± 2 | 1252 ± 2
x2 = 0.8514 | 854.23 ± 0.48 | 845.81 ± 0.49 | 837.33 ± 0.5 | 1330 ± 2 | 1289 ± 2 | 1249 ± 2
x2 = 0.9286 | 857.59 ± 0.48 | 849.02 ± 0.49 | 840.41 ± 0.5 | 1329 ± 2 | 1288 ± 2 | 1248 ± 2

CCCCCCCCCO [nonan-1-ol] + Cc1cccc(C)c1
Conditions | mass density, 293.15 K [kg/m3] | mass density, 303.15 K [kg/m3] | mass density, 313.15 K [kg/m3] | speed of sound, 293.15 K [m/s] | speed of sound, 303.15 K [m/s] | speed of sound, 313.15 K [m/s]
x2 = 0 | 827.7 ± 0.43 | 820.82 ± 0.44 | 813.88 ± 0.45 | 1381 ± 2 | 1347 ± 2 | 1314 ± 2
x2 = 0.066 | 829.52 ± 0.43 | 822.53 ± 0.44 | 815.47 ± 0.45 | 1378 ± 2 | 1343 ± 2 | 1310 ± 2
x2 = 0.127 | 831.23 ± 0.43 | 824.14 ± 0.44 | 816.98 ± 0.45 | 1375 ± 2 | 1340 ± 2 | 1306 ± 2
x2 = 0.1739 | 832.57 ± 0.43 | 825.39 ± 0.44 | 818.16 ± 0.45 | 1373 ± 2 | 1337 ± 2 | 1302 ± 2
x2 = 0.2461 | 834.67 ± 0.44 | 827.36 ± 0.45 | 820.01 ± 0.46 | 1368 ± 2 | 1332 ± 2 | 1297 ± 2
x2 = 0.2913 | 836.03 ± 0.44 | 828.63 ± 0.45 | 821.21 ± 0.46 | 1365 ± 2 | 1328 ± 2 | 1293 ± 2
x2 = 0.3635 | 838.25 ± 0.44 | 830.72 ± 0.45 | 823.17 ± 0.46 | 1361 ± 2 | 1323 ± 2 | 1287 ± 2
x2 = 0.4422 | 840.77 ± 0.45 | 833.1 ± 0.46 | 825.42 ± 0.47 | 1355 ± 2 | 1317 ± 2 | 1281 ± 2
x2 = 0.4872 | 842.27 ± 0.45 | 834.52 ± 0.46 | 826.76 ± 0.47 | 1353 ± 2 | 1314 ± 2 | 1277 ± 2
x2 = 0.5648 | 844.95 ± 0.45 | 837.08 ± 0.46 | 829.18 ± 0.48 | 1348 ± 2 | 1309 ± 2 | 1272 ± 2
x2 = 0.6251 | 847.15 ± 0.46 | 839.19 ± 0.47 | 831.18 ± 0.48 | 1345 ± 2 | 1305 ± 2 | 1268 ± 2
x2 = 0.6873 | 849.54 ± 0.46 | 841.47 ± 0.47 | 833.35 ± 0.48 | 1342 ± 2 | 1302 ± 2 | 1264 ± 2
x2 = 0.7713 | 853 ± 0.47 | 844.78 ± 0.48 | 836.5 ± 0.49 | 1339 ± 2 | 1299 ± 2 | 1260 ± 2
x2 = 0.8507 | 856.56 ± 0.47 | 848.19 ± 0.48 | 839.76 ± 0.5 | 1338 ± 2 | 1298 ± 2 | 1258 ± 2
x2 = 0.9284 | 860.34 ± 0.48 | 851.84 ± 0.49 | 843.28 ± 0.5 | 1339 ± 2 | 1298 ± 2 | 1257 ± 2

CCCCCCCCCO [nonan-1-ol] + Cc1ccccc1C
Conditions | mass density, 293.15 K [kg/m3] | mass density, 303.15 K [kg/m3] | mass density, 313.15 K [kg/m3] | speed of sound, 293.15 K [m/s] | speed of sound, 303.15 K [m/s] | speed of sound, 313.15 K [m/s]
x2 = 0 | 827.7 ± 0.43 | 820.82 ± 0.44 | 813.88 ± 0.45 | 1381 ± 2 | 1347 ± 2 | 1314 ± 2
x2 = 0.0653 | 830.13 ± 0.42 | 823.15 ± 0.44 | 816.1 ± 0.45 | 1380 ± 2 | 1345 ± 2 | 1312 ± 2
x2 = 0.136 | 832.82 ± 0.42 | 825.73 ± 0.43 | 818.58 ± 0.44 | 1378 ± 2 | 1343 ± 2 | 1309 ± 2
x2 = 0.1773 | 834.44 ± 0.42 | 827.29 ± 0.43 | 820.07 ± 0.44 | 1377 ± 2 | 1341 ± 2 | 1307 ± 2
x2 = 0.2281 | 836.48 ± 0.42 | 829.25 ± 0.43 | 821.95 ± 0.44 | 1375 ± 2 | 1339 ± 2 | 1304 ± 2
x2 = 0.2834 | 838.77 ± 0.41 | 831.45 ± 0.42 | 824.06 ± 0.43 | 1373 ± 2 | 1336 ± 2 | 1301 ± 2
x2 = 0.3463 | 841.46 ± 0.41 | 834.04 ± 0.42 | 826.55 ± 0.43 | 1370 ± 2 | 1334 ± 2 | 1298 ± 2
x2 = 0.4203 | 844.78 ± 0.4 | 837.24 ± 0.41 | 829.63 ± 0.43 | 1368 ± 2 | 1330 ± 2 | 1295 ± 2
x2 = 0.4761 | 847.41 ± 0.4 | 839.78 ± 0.41 | 832.07 ± 0.42 | 1366 ± 2 | 1328 ± 2 | 1292 ± 2
x2 = 0.5478 | 850.96 ± 0.39 | 843.21 ± 0.41 | 835.38 ± 0.42 | 1364 ± 2 | 1326 ± 2 | 1289 ± 2
x2 = 0.6327 | 855.43 ± 0.39 | 847.54 ± 0.4 | 839.57 ± 0.41 | 1362 ± 2 | 1323 ± 2 | 1286 ± 2
x2 = 0.7121 | 859.93 ± 0.38 | 851.92 ± 0.39 | 843.83 ± 0.41 | 1361 ± 2 | 1322 ± 2 | 1285 ± 2
x2 = 0.7974 | 865.14 ± 0.37 | 856.99 ± 0.39 | 848.77 ± 0.4 | 1361 ± 2 | 1322 ± 2 | 1284 ± 2
x2 = 0.8695 | 869.88 ± 0.37 | 861.63 ± 0.38 | 853.31 ± 0.39 | 1363 ± 2 | 1322 ± 2 | 1284 ± 2
x2 = 0.9287 | 874.08 ± 0.36 | 865.73 ± 0.37 | 857.34 ± 0.39 | 1365 ± 2 | 1324 ± 2 | 1285 ± 2
